Experimental data published in PubChem BioAssay (NCI).
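Dose response: 5 concentrations. Exposure: 48 h. Format: 96-well plates. Endpoint: linear interpolation; highest concentration if not reached. TGI denotes the concentration required for complete inhibition of growth.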

Assays:
Experiment in all cases: NCI-60 cell line screen, 48 h
[1] = test system: 786-0 renal
[2] = test system: A498 renal
[3] = test system: A549 NSCLC
[4] = test system: ACHN renal
[5] = test system: CCRF-CEM leukemia
[6] = test system: DU-145 prostate
[7] = test system: EKVX NSCLC
[8] = test system: HCC-2998 colon
[9] = test system: HCT-116 colon
[10] = test system: HCT-15 colon
[11] = test system: HL-60(TB) leukemia
[12] = test system: HOP-62 NSCLC
[13] = test system: HOP-92 NSCLC
[14] = test system: HS 578T breast
[15] = test system: HT29 colon
[16] = test system: IGROV1 ovarian
[17] = test system: K-562 leukemia
[18] = test system: LOX IMVI melanoma
[19] = test system: MALME-3M melanoma
[20] = test system: MCF7 breast
[21] = test system: MDA-MB-435
[22] = test system: MDA-N
[23] = test system: MOLT-4 leukemia
[24] = test system: NCI-H226 lung
[25] = test system: NCI-H23 lung
[26] = test system: NCI-H460 lung
[27] = test system: NCI-H522 lung
[28] = test system: NCI/ADR-RES ovarian
[29] = test system: OVCAR-3 ovarian
[30] = test system: OVCAR-4 ovarian
[31] = test system: OVCAR-5 ovarian
[32] = test system: OVCAR-8 ovarian
[33] = test system: PC-3 prostate
[34] = test system: RPMI-8226 leukemia
[35] = test system: SF-268 CNS
[36] = test system: SF-295 CNS
[37] = test system: SF-539 CNS
[38] = test system: SK-MEL-28 melanoma
[39] = test system: SK-MEL-5 melanoma
[40] = test system: SN12C renal
[41] = test system: SNB-19 CNS
[42] = test system: SNB-75 CNS
[43] = test system: SR leukemia
[44] = test system: SW-620 colon
[45] = test system: TK-10 renal
[46] = test system: U251 CNS
[47] = test system: UACC-257 melanoma
[48] = test system: CAKI-1 renal
[49] = test system: COLO 205 colon
[50] = test system: KM12 colon
[51] = test system: M14 melanoma
[52] = test system: MDA-MB-231 breast
[53] = test system: RXF 393 renal
[54] = test system: SK-MEL-2 melanoma
[55] = test system: SK-OV-3 ovarian
[56] = test system: UACC-62 melanoma
[57] = test system: UO-31 renal

O=[N+]([O-])c1cccnc1NCC1(CO)CCCC1 showed a TGI [1] of 80.1 µM, a TGI [2] of over 100 µM and a TGI [3] of over 100 µM. For the same molecule, the TGI [4] was 70.1 µM, the TGI [5] was over 100 µM and the TGI [6] was over 100 µM. It also gave a TGI [7] of 76.9 µM, a TGI [8] of 32.8 µM and a TGI [9] of 67 µM. For the same molecule, the TGI [10] was 37.7 µM, the TGI [11] was 50.3 µM and the TGI [12] was over 100 µM. The TGI [13] was 54.1 µM, the TGI [14] was 54 µM and the TGI [15] was 34.8 µM. The TGI [16] was 38.7 µM, the TGI [17] was 53.2 µM and the TGI [18] was 30.3 µM. For the same molecule, the TGI [19] was 37.5 µM, the TGI [20] was over 100 µM and the TGI [21] was 44.1 µM. It also gave a TGI [22] of 42.3 µM, a TGI [23] of 40.5 µM and a TGI [24] of 68.4 µM. It also gave a TGI [25] of over 100 µM, a TGI [26] of 47.6 µM and a TGI [27] of 45.9 µM. It also gave a TGI [28] of 49 µM, a TGI [29] of 46 µM and a TGI [30] of over 100 µM. It also gave a TGI [31] of 87.1 µM, a TGI [32] of 50.7 µM and a TGI [33] of 37.8 µM. The TGI [34] was 59.1 µM, the TGI [35] was 70.7 µM and the TGI [36] was 56.2 µM. For the same molecule, the TGI [37] was 49.7 µM, the TGI [38] was 51.3 µM and the TGI [39] was 30.9 µM. The TGI [40] was 53 µM, the TGI [41] was over 100 µM and the TGI [42] was 34.9 µM. The TGI [43] was 64.2 µM, the TGI [44] was 54.4 µM and the TGI [45] was 79.3 µM. It also gave a TGI [46] of 31.2 µM and a TGI [47] of 44.3 µM.

C[n+]1c(-c2ccccc2)cc2/c(=C\c3ccccc3)c3ccccc3n21 was tested, and the TGI [1] was 2.77 µM, the TGI [2] was 23.1 µM and the TGI [3] was over 36.3 µM. It also gave a TGI [4] of 11.8 µM, a TGI [48] of 11.4 µM and a TGI [49] of 1.8 µM. It also gave a TGI [6] of 10.6 µM, a TGI [7] of 9.64 µM and a TGI [8] of 14.2 µM. For the same molecule, the TGI [9] was 4.91 µM, the TGI [10] was 11.5 µM and the TGI [11] was 0.302 µM. For the same molecule, the TGI [12] was 6.9 µM, the TGI [13] was 4.93 µM and the TGI [14] was 0.576 µM. For the same molecule, the TGI [15] was 3.22 µM, the TGI [16] was 2.64 µM and the TGI [17] was over 100 µM. It also gave a TGI [50] of 2.18 µM, a TGI [18] of 2.88 µM and a TGI [51] of 4.19 µM. The TGI [19] was 2.93 µM, the TGI [20] was over 32.2 µM and the TGI [52] was 3.55 µM. It also gave a TGI [21] of 2.45 µM, a TGI [22] of 3.42 µM and a TGI [23] of 7.78 µM. The TGI [24] was 2.01 µM, the TGI [25] was 7.2 µM and the TGI [27] was 2.01 µM. The TGI [28] was 71.1 µM, the TGI [29] was 3.04 µM and the TGI [30] was 17.2 µM. It also gave a TGI [31] of 13.4 µM, a TGI [32] of 4.19 µM and a TGI [33] of 3.69 µM. It also gave a TGI [34] of over 100 µM, a TGI [53] of 4.07 µM and a TGI [35] of 2.92 µM. It also gave a TGI [36] of 76 µM, a TGI [54] of 2.26 µM and a TGI [38] of 2.73 µM. It also gave a TGI [55] of 17.4 µM, a TGI [40] of 3.32 µM and a TGI [41] of 24 µM. The TGI [42] was 2.05 µM, the TGI [43] was over 21.4 µM and the TGI [44] was 3.47 µM. For the same molecule, the TGI [45] was 14.2 µM, the TGI [46] was 1.67 µM and the TGI [47] was 3.98 µM. It also gave a TGI [56] of 3.24 µM and a TGI [57] of 7.81 µM.
